This passage reports GI50 and TGI results from PubChem BioAssay (NCI).

SMILES strings stand for the structures. “And” between values parts separate entries of the source, which are not always exact repeats. Equal values may be shown once.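 Tested at 5 concentrations; 48 h exposure; 96-well plates; endpoints linearly interpolated, else capped at highest concentration. At the GI50, growth is halved. TGI denotes the concentration required for complete inhibition of growth.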

Some test systems named below: HCT-116 colon; RPMI-8226 leukemia; HCT-15 colon; RXF 393 renal; HT29 colon; OVCAR-3 ovarian; OVCAR-5 ovarian; A498 renal; NCI-H460 lung; K-562 leukemia.
Common to all, as to assay: NCI-60 cell line screen, 48 h

In the case of `COC(=O)c1ccc2c(c1)C(=O)c1c-2n(CCCN=[N+]=[N-])c(=O)c2cc([N+](=O)[O-])ccc12`, the GI50 was 47.4 µM in the assay with HCT-116 colon; 63.3 µM with RPMI-8226 leukemia; greater than 100 µM in the assay on HCT-15 colon; 37.3 µM in the assay with RXF 393 renal; greater than 100 µM in the assay with HT29 colon; greater than 100 µM in the assay on OVCAR-3 ovarian. Further, the GI50 was greater than 100 µM in the assay on OVCAR-5 ovarian, greater than 100 µM in the assay with A498 renal, 38.1 µM in the assay on NCI-H460 lung and 48 µM in the assay with K-562 leukemia. Also, the TGI with HCT-116 colon, with RPMI-8226 leukemia, in the assay on HCT-15 colon, in the assay with RXF 393 renal, in the assay on HT29 colon and in the assay on OVCAR-3 ovarian was greater than 100 µM in each case. Also, the TGI in the assay on OVCAR-5 ovarian, with A498 renal, with NCI-H460 lung and in the assay on K-562 leukemia was greater than 100 µM throughout.
Regarding `CC1=NN(C(=O)c2ccncc2)C(=O)C1N=Nc1ccc(F)cc1` (stereo not given), the TGI with HCT-116 colon, in the assay with RPMI-8226 leukemia, with HCT-15 colon, in the assay with RXF 393 renal, in the assay with HT29 colon and in the assay with OVCAR-3 ovarian was greater than 100 µM in each case. Moreover, the TGI in the assay on OVCAR-5 ovarian, in the assay with A498 renal, in the assay on NCI-H460 lung and in the assay with K-562 leukemia was greater than 100 µM throughout.
As for `CC(=Nc1ccc(S(N)(=O)=O)cc1)c1c(O)[nH]c2ccccc12`, the GI50 in the assay with HCT-116 colon is greater than 22.8 µM; with RPMI-8226 leukemia, greater than 25 µM; in the assay with HCT-15 colon it was greater than 25 µM; in the assay with RXF 393 renal, greater than 25 µM; in the assay with HT29 colon, greater than 25 µM; in the assay on OVCAR-3 ovarian it was greater than 25 µM. The GI50 with OVCAR-5 ovarian is greater than 25 µM; in the assay on A498 renal, greater than 25 µM; with NCI-H460 lung it was greater than 23.9 µM; in the assay on K-562 leukemia, greater than 25 µM. For the same compound, the TGI in the assay on HCT-116 colon, in the assay with RPMI-8226 leukemia, with HCT-15 colon, in the assay on RXF 393 renal, with HT29 colon and with OVCAR-3 ovarian was greater than 25 µM in each case. For the same compound, the TGI in the assay with OVCAR-5 ovarian, in the assay with A498 renal, with NCI-H460 lung and in the assay on K-562 leukemia was greater than 25 µM each time.
As to `Cc1ccc(-n2nc(C(C)(C)C)cc2NC(=O)NCc2cc(F)ccc2Oc2ccc3c(cnn3CCO)c2)cc1`, the GI50 with HCT-116 colon was 2.34 µM and 2.46 µM; in the assay on RPMI-8226 leukemia, 3.28 µM and 2.7 µM; in the assay on HCT-15 colon it was > 10 µM and 8.9 µM; in the assay on RXF 393 renal, 7.04 µM and 4.64 µM; in the assay on HT29 colon it was 0.718 µM and 2.44 µM; in the assay with OVCAR-3 ovarian, > 10 µM and 7.65 µM. The GI50 was > 10 µM and 1.89 µM in the assay on OVCAR-5 ovarian; 1.02 µM and 1.48 µM in the assay on A498 renal; > 10 µM and 4.85 µM in the assay with NCI-H460 lung; 0.00802 µM and 0.0185 µM in the assay with K-562 leukemia. Besides, the TGI in the assay with HCT-116 colon was greater than 36.3 µM; with RPMI-8226 leukemia it was > 10 µM and 28.7 µM; in the assay on HCT-15 colon it was greater than 100 µM; with RXF 393 renal it was > 10 µM and 23.7 µM; in the assay on HT29 colon, > 10 µM and 26.6 µM; in the assay with OVCAR-3 ovarian it was greater than 76.5 µM. Moreover, the TGI was greater than 31.6 µM in the assay with OVCAR-5 ovarian; 9.34 µM and 6.97 µM in the assay on A498 renal; greater than 59.7 µM with NCI-H460 lung; greater than 10 µM in the assay with K-562 leukemia.
Regarding `N#Cc1c(-c2ccco2)cc(-c2ccccc2)[nH]c1=O`, the TGI in the assay with HCT-116 colon, in the assay with RPMI-8226 leukemia, in the assay with HCT-15 colon, in the assay with RXF 393 renal, in the assay on HT29 colon and in the assay on OVCAR-3 ovarian was greater than 100 µM in each case. In addition, the TGI in the assay with OVCAR-5 ovarian, in the assay on A498 renal, in the assay with NCI-H460 lung and in the assay with K-562 leukemia was greater than 100 µM in each case.
As for `CCn1c(-c2nonc2N)nc2ccncc21`, the GI50 in the assay on HCT-116 colon, in the assay on RPMI-8226 leukemia, with HCT-15 colon, in the assay on RXF 393 renal, in the assay with HT29 colon and in the assay with OVCAR-3 ovarian was greater than 25 µM throughout. Besides, the GI50 in the assay with OVCAR-5 ovarian, with A498 renal, in the assay with NCI-H460 lung and in the assay with K-562 leukemia was greater than 25 µM each time. Moreover, the TGI in the assay with HCT-116 colon, in the assay with RPMI-8226 leukemia, in the assay on HCT-15 colon, in the assay on RXF 393 renal, with HT29 colon and in the assay on OVCAR-3 ovarian was greater than 25 µM in each case. The TGI in the assay on OVCAR-5 ovarian, in the assay on A498 renal, in the assay with NCI-H460 lung and in the assay with K-562 leukemia was greater than 25 µM throughout.
Turning to `COc1ccc(F)c(F)c1C(=O)c1cnc(NC2CCN(S(C)(=O)=O)CC2)nc1N`, the GI50 in the assay on HCT-116 colon is 0.257 µM and 0.183 µM; in the assay on RPMI-8226 leukemia it was 0.791 µM and 0.353 µM; with HCT-15 colon, 0.484 µM and 0.361 µM; in the assay on RXF 393 renal, 0.286 µM and 0.149 µM; with HT29 colon, 0.42 µM and 0.341 µM; in the assay on OVCAR-3 ovarian, 0.961 µM and 0.588 µM. The GI50 with OVCAR-5 ovarian is 0.728 µM and 0.251 µM; in the assay on A498 renal, 0.445 µM; with NCI-H460 lung it was 0.165 µM and 0.117 µM; in the assay on K-562 leukemia, 2.05 µM and 1.95 µM. Also, the TGI with HCT-116 colon is greater than 100 µM; with RPMI-8226 leukemia, 4.98 µM and 5.57 µM; in the assay with HCT-15 colon it was greater than 100 µM; in the assay with RXF 393 renal, 1.48 µM and 0.423 µM; in the assay on HT29 colon it was 7.68 µM and > 9.06 µM; with OVCAR-3 ovarian, 5.26 µM and 6.56 µM. The TGI in the assay on OVCAR-5 ovarian is greater than 100 µM; in the assay on A498 renal it was 2.08 µM; in the assay on NCI-H460 lung it was greater than 100 µM; in the assay with K-562 leukemia, greater than 100 µM.
Take `CC(C)Oc1ccc(C(=O)Cn2ccnc2)cc1-n1c(CN2CCN(C(=O)COc3ccc(Cl)cc3)CC2)nc2ccccc2c1=O`: the GI50 with HCT-116 colon was 8.68 µM; with RPMI-8226 leukemia, 11.5 µM; in the assay with HCT-15 colon, 12.3 µM; in the assay on RXF 393 renal, 7.48 µM; in the assay on HT29 colon, 14.8 µM; in the assay with OVCAR-3 ovarian, 2.18 µM. Further, the GI50 is 17.6 µM with OVCAR-5 ovarian, 14.1 µM in the assay on A498 renal, 16.8 µM in the assay on NCI-H460 lung and 5.77 µM in the assay on K-562 leukemia. In addition, the TGI in the assay with HCT-116 colon was determined as 24.9 µM; in the assay on RPMI-8226 leukemia it was 40.4 µM; in the assay on HCT-15 colon, 32.6 µM; with RXF 393 renal, 22.2 µM; with HT29 colon, 44.9 µM; with OVCAR-3 ovarian, 13.2 µM. In addition, the TGI was determined as 42.4 µM with OVCAR-5 ovarian, 28.6 µM in the assay with A498 renal, 33.7 µM with NCI-H460 lung and 81.3 µM with K-562 leukemia.
